Publication PMC4084896 (PLoS ONE, 2014)

Key:
[1] = test system: CYP1A1/1A2 catalytic activity (EROD); assay: EROD assay in primary human hepatocytes; format: cell-based; conditions: culture Hep220774, TCDD 5 nM, 24 h
Description: Cells were treated for 24 h with tested compounds.
The cells were treated for 24 h with (+)-KET, (−)-KET and commercial rac-KET (1 µM, 30 µM, 50 µM), and with TCDD (5 nM) and vehicle (DMSO; 0.1% V/V). […] In the cytotoxicity assay, we found all forms of KET highly toxic against human hepatocytes at the concentration 50 µM.

CYP1A1 protein = CYP1A1 protein in primary human hepatocytes (western blot); format: cell-based; conditions: cultures HH52, HH54, Hep220770, 48 h
Description: Cells were cultured in serum-free medium.
Total protein extracts were prepared from cells on 6-well plates. Cells were washed twice with ice-cold PBS and scraped into 1 ml of PBS. The suspension was centrifuged (4500 RPM/5 min/4°C) and the pellet was resuspended in 150 µl of ice-cold lysis buffer (150 mM NaCl; 10 mM Tris pH 7.2; 0.1% (w/v) SDS; anti-protease cocktail, 1% (v/v) Triton X-100; anti-phosphatase cocktail, 1% (v/v) sodium deoxycholate; 5 mM EDTA). The mixture was vortexed and incubated for 10 min on ice and then centrifuged (15000 RPM/13 min/4°C). Supernatant was collected and the protein content was determined by the Bradford reagent. SDS–PAGE gels (10%) were run on a BioRad apparatus according to the general procedure followed by the protein transfer onto PVDF membrane. The membrane was saturated with 5% non-fat dried milk for 1 h at room temperature. Blots were probed with primary antibodies against CYP1A1 (goat polyclonal, sc-9828, G-18, dilution 1∶500), CYP1A2 (mouse monoclonal, sc-374228, G-4, dilution 1∶2000), actin (goat polyclonal; sc-1616, 1–19, dilution 1∶2000), all purchased from Santa Cruz Biotechnology (Santa Cruz, CA, USA). Chemiluminescent detection was performed using horseradish peroxidase-conjugated secondary antibodies (Santa Cruz Biotechnology) and Western blotting Luminol kit (Santa Cruz Biotechnology).

[2] = target: T1, aryl hydrocarbon receptor AhR (Homo sapiens, UniProt P35869); assay: AhR gene reporter assay in AZ-AHR cells, agonist mode; format: cell-based; conditions: 5 nM TCDD, four passages
T1 construct: endogenous in cells; host or cells: AZ-AHR (stably transfected reporter line derived from HepG2)
T1 sequence (P35869 11-848): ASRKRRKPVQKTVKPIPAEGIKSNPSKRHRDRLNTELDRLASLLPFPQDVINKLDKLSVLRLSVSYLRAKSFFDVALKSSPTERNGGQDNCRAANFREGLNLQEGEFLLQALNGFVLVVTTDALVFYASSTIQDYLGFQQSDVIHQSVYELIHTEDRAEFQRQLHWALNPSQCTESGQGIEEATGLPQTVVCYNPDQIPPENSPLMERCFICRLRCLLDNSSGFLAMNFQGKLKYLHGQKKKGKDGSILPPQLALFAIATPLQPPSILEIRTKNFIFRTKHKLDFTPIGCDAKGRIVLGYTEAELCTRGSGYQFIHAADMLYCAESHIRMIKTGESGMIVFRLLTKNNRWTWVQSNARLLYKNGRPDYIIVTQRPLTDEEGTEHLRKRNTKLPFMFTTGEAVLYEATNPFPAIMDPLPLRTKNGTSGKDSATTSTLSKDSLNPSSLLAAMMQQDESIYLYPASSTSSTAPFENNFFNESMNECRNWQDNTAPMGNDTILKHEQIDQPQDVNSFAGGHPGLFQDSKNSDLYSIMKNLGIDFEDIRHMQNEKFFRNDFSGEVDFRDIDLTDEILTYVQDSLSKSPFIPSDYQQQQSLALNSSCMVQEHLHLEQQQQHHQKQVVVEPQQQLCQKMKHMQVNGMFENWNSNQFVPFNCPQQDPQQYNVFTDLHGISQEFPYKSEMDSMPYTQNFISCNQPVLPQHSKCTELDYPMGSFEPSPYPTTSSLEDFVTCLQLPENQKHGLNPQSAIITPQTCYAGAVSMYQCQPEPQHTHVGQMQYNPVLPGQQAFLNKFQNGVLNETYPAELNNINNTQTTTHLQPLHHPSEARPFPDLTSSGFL
From the text: A stably transfected gene reporter cell line AZ-AHR, derived from human hepatoma HepG2 cells transfected with a construct containing several AhR binding sites upstream of a luciferase reporter gene, was used for assessment of AhR transcriptional activity. A stably transfected gene reporter cell line AZ-GR, derived from human cervix carcinoma HeLa cells transfected with a construct containing several GR response elements upstream of a luciferase reporter gene, was used for assessment of GR transcriptional activity. Cells were incubated for 24 h with tested compounds and/or vehicle (DMSO; 0.1% v/v), in the presence or absence of TCDD (5 nM; AZ-AHR cells) or DEX (100 nM; AZ-GR cells). After the treatments, cells were lysed and luciferase activity was measured. In parallel, cell viability was determined by conventional MTT test.
Gene reporter assays were performed in two different experimental layouts. In agonist mode, cells were treated with increasing concentrations of tested compounds, and the half-maximal effective concentrations (EC50) were calculated.

CYP1A1 mRNA [3] = assay: in vitro; conditions: human, 24 h
From the text: (§1) Primary human hepatocytes used in this study were obtained from two sources: (i) from multiorgan donors LH52 (female; 60 years) and LH54 (person), when: a) Tissue acquisition protocol was in accordance with the requirements issued by “Ethical Committee of the Faculty Hospital Olomouc, Czech Republic” and with Transplantation law #285/2002 Sb., b) “Ethical Committee of the Faculty Hospital Olomouc, Czech Republic” approved the study and the use of primary human hepatocytes for research presented in the current paper., c) The consent from the next of kin of the donor was waived by “Ethical Committee of the Faculty Hospital Olomouc, Czech Republic”; (ii) long-term human hepatocytes in monolayer Batch HEP220770 (person), Batch HEP220774 (person) (purchased from Biopredic International, Rennes, France). Cells were cultured in serum-free medium. Cultures were maintained at 37°C and 5% CO2 in a humidified incubator.
(§2) Total RNA was isolated using TRI Reagent (Molecular Research Center, Cincinnati, OH, USA). cDNA was synthesized from 1000 ng of total RNA using M-MLV Reverse Transcriptase (Finnzymes, Espoo, Finland) at 42°C for 60 min in the presence of random hexamers (Takara, Shiga, Japan). qRT-PCR was carried out using LightCycler FastStart DNA MasterPLUS SYBR Green I (Roche Diagnostic Corporation, Prague, Czech Republic) on a Light Cycler 480 II apparatus (Roche Diagnostic Corporation). CYP1A1, CYP1A2, tyrosine aminotransferase (TAT) and GAPDH mRNAs were determined as described previously, [16]. Measurements were performed in triplicates. Gene expression was normalized to GAPDH as a housekeeping gene.

CYP1A2 mRNA = assay: in vitro; conditions: human, 24 h
From the text: as §1, §2

CYP1A1 mRNA [4] = conditions: HepG2, TCDD 5 nM, 24 h, vs vehicle
[5] = female, culture HH52, TCDD 5 nM
[6] = female, culture Hep220770, TCDD 5 nM

**Q.** How did the “induction of EROD activity” value [1] turn out when Clc1cc2c(cc1Cl)Oc1cc(Cl)c(Cl)cc1O2 [TCDD, 2,3,7,8-tetrachlorodibenzo-p-dioxin] was run?
**A.** The value was “approximately 15 fold”.

**Q.** What about the “CYP1A1 protein induction (in words)” value (CYP1A1 protein) of the same compound?
**A.** The value was “drastic increase”.

**Q.** And the “average induction of AhR-dependent luciferase activity” value [2]?
**A.** Its value is 435 fold.

**Q.** What about the fold induction (CYP1A1 mRNA [3]; [5]) of the same compound?
**A.** Its fold induction is 53.

**Q.** What about the fold induction (CYP1A1 mRNA [3]; [6]) of the same compound?
**A.** The fold induction was 1840.

**Q.** What about the fold induction (CYP1A1 mRNA [3]; male, culture HH54, TCDD 5 nM) of the same compound?
**A.** Its fold induction is 101.

**Q.** What about the fold induction (CYP1A2 mRNA; [5]) of the same compound?
**A.** Its fold induction is 79.

**Q.** And the fold induction (CYP1A2 mRNA; [6])?
**A.** Its fold induction is 219.

**Q.** And the fold induction (CYP1A2 mRNA; male, culture HH54, TCDD 5 nM)?
**A.** The fold induction was 30.

**Q.** What about the “CYP1A1 mRNA induction” value (CYP1A1 mRNA [4]) of the same compound?
**A.** Its value is “approximately 500 fold”.
